Assay results published in publication PMC11311697, “Exploring the Role of Neuropeptide PACAP in Cytoskeletal Function Using Spectroscopic Methods” (International Journal of Molecular Sciences, 2024).
Ends that are not written are not given here.

How the values were obtained:
G-actin = G-actin (Oryctolagus cuniculus, UniProt P68135); test: Steady-state anisotropy of Alexa488NHS-labeled G-actin with PACAP; assay type: binding, rabbit; conditions: 0.2 µM A488NHS-labeled G-actin; PACAP 0 to 5 µM; 50 mM KCl, 1 mM MgCl2, 4 μM LatA, 1 mM EGTA, G-buffer pH 7.8; 20 °C; ex 488 nm; mean ± SD, at least three independent experiments; read-out: dissociation equilibrium constant (KD), in Figure 3
Experimental: Actin was prepared from acetone-dried muscle powder from rabbit skeletal muscle according to the method of Spudich and Watt modified by Mossakowska et al.. Shortly, the acetone-dried powder was extracted in G-buffer (4 mM TRIS (Sigma-Aldrich, Saint Louis, MO, USA), 0.1 mM CaCl2 (Sigma-Aldrich, Saint Louis, MO, USA), 0.2 mM ATP (VWR International LLC, Radnor, PA, USA), 0.5 mM DTT (VWR International LLC, Radnor, PA, USA), pH 7.8), mixed on ice with a magnetic stirrer (30 min, 80 rpm). The mixture was filtered through quadruple-layered gauze, supplemented with additional G-buffer, mixed further (40 min, 80 rpm), filtered again, and centrifuged (30,000 rpm, 4 °C, 30 min). […] After clarification centrifugation (80,000 rpm, 30 min, 4 °C), the supernatant was removed and actin absorbance was measured using a spectrophotometer to determine its concentration. […]
For our investigation, we utilized A488NHS green-fluorescent dye, which remains stable between pH 4 and 10, with peak emission when excited at 488 nm. […] In vitro anisotropy and fluorescence emission measurements involved 0.2 µM Alexa488NHS-Mg^2+-ATP-G-actin (Alexa488NHS labeled G-actin) with varying PACAP concentrations. […] The cuvette (Hellma® fluorescence, ultra Micro, Suprasil® quartz, spectral range 200–2500 nm) had optical path lengths of ex = 10 mm/em = 2 mm. […]

[1] = system: adenylate cyclase, rat pituitary cells; conditions: versus VIP, ref [2]; cited from earlier work
Description: Pituitary adenylate cyclase-activating polypeptide (PACAP) was first isolated from the sheep hypothalamus in 1989 [1, 2]. It belongs to the vasoactive intestinal peptide (VIP)/glucagon/secretin peptide family, sharing 68% structural homology with VIP, but stimulating adenylate cyclase activity 1000 times more effectively in rat pituitary cells. PACAP plays crucial roles in the nervous and endocrine systems, acting as a hormone, neurotransmitter, vasodilator, and neuromodulator, and potentially having neurotrophic or neuroprotective functions. PACAP exists in two biologically ...

Tau = conditions: ref [1],[79]; cited from earlier work
Description: (§1) As mentioned above, PACAP plays a significant role in mitigating neuronal damage and promoting cell survival. […] The misfolding and aggregation of proteins such as Tau are hallmarks of neurodegenerative diseases like Alzheimer’s.

caspase-3 = conditions: ref [1],[79]; cited from earlier work
Description: as §1

astrocyte = conditions: by increasing cAMP levels; ref [57]; cited from earlier work
Description: The polymerization of G-actin into filamentous actin (F-actin) is essential for maintaining cellular structural integrity and supporting dynamic processes. Actin filaments, which form the cell’s cytoskeleton, provide mechanical strength and stability. The F-actin network supports various cellular functions, including cell migration, division, and intracellular transport, by continuously polymerizing and depolymerizing. The dynamic nature of F-actin allows cells to adapt to environmental changes and respond to signals, interacting with regulatory proteins to influence membrane protr ...

[2] = system: traumatic brain injury (TBI); conditions: intracerebroventricular (icv); brain regions such as corticospinal tract and medial longitudinal fasciculus; ref [45],[46]; cited from earlier work
Description: (§2) PACAP synergizes with multiple factors to promote neurite growth in different cell lines. It works with nerve growth factor (NGF) and VIP to stimulate neuritogenesis, increasing neurite length and branching, similar to brain-derived neurotrophic factor (BDNF). […] In traumatic central nervous system (CNS) injuries, PACAP has cytoprotective and antiapoptotic effects. It increases dihydropyrimidinase li ...

[3] = system: neurite growth in different cell lines; conditions: ref [40],[41],[42]; cited from earlier work
Description: as §2

[4] = system: dihydropyrimidinase like 2 (DPYL2); conditions: ischemic brain tissue; ref [43],[44]; cited from earlier work
Description: as §2

[5] = system: streptozotocin-induced diabetes model; set-up: method as in PMID 34639032; conditions: ref [76]; cited from earlier work
[6] = system: Ca^2+-G actin and Ca^2+-F actin; conditions: DSC; ref [81],[82]; cited from earlier work
Description: In previous investigations, we employed differential scanning calorimetry (DSC) to explore the impact of various PACAP fragments on the thermal stability of Ca^2+-G actin and Ca^2+-F actin.

Ca^2+-F-actin = system: Ca^2+-F-actin; set-up: method as in doi:10.1007/s10973-024-13286-2, doi:10.1007/s10973-024-13289-z; conditions: DSC; ref [81],[82]; cited from earlier work
PAC1 receptor = conditions: ref [7],[8]; cited from earlier work
Description: PACAP can bind to VPAC1 (VIP receptor type 1) and VPAC2 (VIP receptor […]) receptors, which also bind VIP, due to their structural similarity. […] The high specificity of PAC1 receptors for PACAP makes them ideal for studying PACAP–receptor interactions. PAC1 receptors, being GS protein-coupled receptors (GPCRs ...

Compound: CSCC[C@H](NC(=O)[C@H](CCC(N)=O)NC(=O)[C@H](CCCCN)NC(=O)[C@H](CCCNC(=N)N)NC(=O)[C@H](Cc1ccc(O)cc1)NC(=O)[C@H](CCCNC(=N)N)NC(=O)[C@H](CO)NC(=O)[C@H](Cc1ccc(O)cc1)NC(=O)[C@H](CO)NC(=O)[C@H](CC(=O)O)NC(=O)[C@@H](NC(=O)[C@@H](N)Cc1ccccc1)[C@@H](C)O)C(=O)N[C@@H](C)C(=O)N[C@H](C(=O)N[C@@H](CCCCN)C(=O)N[C@@H](CCCCN)C(=O)N[C@@H](Cc1ccc(O)cc1)C(=O)N[C@@H](CC(C)C)C(=O)N[C@@H](C)C(=O)N[C@@H](C)C(=O)N[C@H](C(=O)N[C@@H](CC(C)C)C(=O)NCC(=O)N[C@@H](CCCCN)C(=O)N[C@@H](CCCNC(=N)N)C(=O)N[C@@H](Cc1ccc(O)cc1)C(=O)N[C@@H](CCCCN)C(=O)N[C@@H](CCC(N)=O)C(=O)N[C@@H](CCCNC(=N)N)C(=O)N[C@H](C(=O)N[C@@H](CCCCN)C(=O)N[C@@H](CC(N)=O)C(=O)N[C@@H](CCCCN)C(N)=O)C(C)C)C(C)C)C(C)C [PACAP6-38]
- Kd (G-actin): 0.15046 ± 3e-05 µM

Compound: Pituitary adenylate cyclase-activating polypeptide [PACAP]
- stimulation of adenylate cyclase activity relative to VIP [1]: 1000 times
- effect on Tau phosphorylation (in words) (Tau): enhances Tau phosphorylation and prevents its dephosphorylation
- effect on caspase-3 activity (in words) (caspase-3): inhibits caspase-3 activity
- effect on actomyosin stress fibers (in words) (astrocyte): promotes actomyosin stress fiber depolymerization
- effect on axonal swellings and amyloid plaque accumulation (in words) [2]: reduces axonal swellings and amyloid plaque accumulation
- effect on axon growth / neurite growth (in words) [3]: enhances axon length and cell body size but does not affect dendrite length
- effect on DPYL2 protein levels (in words) [4]: increases dihydropyrimidinase like 2 (DPYL2) protein levels in ischemic brain tissue
- effect on morphological signs of nerve injury and hyperalgesia (in words) [5]: reduced morphological signs of nerve injury (axon–myelin separation, elevated mitochondrial number in myelinated axons, unmyelinated fiber atrophy, and basement membrane thickening of endoneurial vessels) while also attenuating pressure and touch hyperalgesia

Compound: CC[C@H](C)[C@H](NC(=O)CNC(=O)[C@H](CC(=O)O)NC(=O)[C@H](CO)NC(=O)[C@@H](N)Cc1cnc[nH]1)C(=O)N[C@@H](Cc1ccccc1)C(=O)N[C@H](C(=O)N[C@@H](CC(=O)O)C(=O)N[C@@H](CO)C(=O)N[C@@H](Cc1ccc(O)cc1)C(=O)N[C@@H](CO)C(=O)N[C@@H](CCCNC(=N)N)C(=O)N[C@@H](Cc1ccc(O)cc1)C(=O)N[C@@H](CCCNC(=N)N)C(=O)N[C@@H](CCCCN)C(=O)N[C@@H](CCC(N)=O)C(=O)N[C@@H](CCSC)C(=O)N[C@@H](C)C(=O)N[C@H](C(=O)N[C@@H](CCCCN)C(=O)N[C@@H](CCCCN)C(=O)N[C@@H](Cc1ccc(O)cc1)C(=O)N[C@@H](CC(C)C)C(=O)N[C@@H](C)C(=O)N[C@@H](C)C(=O)N[C@H](C(=O)N[C@@H](CC(C)C)C(=O)NCC(=O)N[C@@H](CCCCN)C(=O)N[C@@H](CCCNC(=N)N)C(=O)N[C@@H](Cc1ccc(O)cc1)C(=O)N[C@@H](CCCCN)C(=O)N[C@@H](CCC(N)=O)C(=O)N[C@@H](CCCNC(=N)N)C(=O)N[C@H](C(=O)N[C@@H](CCCCN)C(=O)N[C@@H](CC(N)=O)C(=O)N[C@@H](CCCCN)C(N)=O)C(C)C)C(C)C)C(C)C)[C@@H](C)O [PACAP38, Pituitary adenylate cyclase-activating polypeptide 38]
- Kd (G-actin): 0.09722 ± 1e-05 µM

Compound: PACAP6-27: PACAP fragment examined by DSC in earlier studies (FTDSYSRYRKQMAVKKYLAAVL; ends and bridges not checked; UniProt P18509 137-158, looked up, fragment)
- effect on thermal properties of actin (in words) [6]: altered the thermal stability of actin, albeit to a lesser degree
- denaturation temperature of Ca2+-F-actin compared with control (in words) (Ca^2+-F-actin): did not show significant changes

Compound: vasoactive intestinal peptide [VIP]
- binding to PAC1 receptor (in words) (PAC1 receptor): low affinity
